Among the data in US8492310B2, “Herbicidal compositions containing benzoylpyrazole compounds” (priority 2008, dated 2013) are inhibition values, retold here.

The term inhibition denotes the change of the read-out against control, counted positive when it falls.

Structures are written as SMILES. Where two headings read alike, the source gives them in different places.

Common to all, as to assay type: in vivo
In test [1] the test system is barnyardgrass (Echinochloa crus-qalli L.). As to the kind of experiment: Foliar treatment pot test, visual growth inhibition rate, barnyardgrass (EC). Particulars: 4.0-5.0 leaf stage, read-out: Growth inhibition rate (%) of EC Measured value; for inhibition at 250 g/ha: 192 h, 8 DAT; for inhibition at 125 g/ha: 504 h, 21 DAT. The text has this:
(§1) When the herbicidal activity in a case where two active ingredients are combined, is larger than the simple sum of the respective herbicidal activities of the two active ingredients (the expected activity), it is called a synergistic effect. The activity expected by the combination of two active ingredients can be calculated as follows (Colby S. R., “Weed”, vol. 15, p. 20-22, 1967). E=α+β−(α×β÷100) where
(§2) Upland field soil was put into a 1/1,000,000 hectare pot, and seeds of various plants (barnyardgrass (Echinochloa crus-qalli L.), crabgrass (Digitaria sanguinalis L.), giant foxtail (Setaria faberi Herrm.), velvetleaf (Abutilon theophrasti MEDIC.) and prickly sida (Sida spinosa L.)) were sown. When the respective plants reached predetermined leaf stage, herbicidal compositions in predetermined amounts were diluted with water in an amount corresponding to 300 L/ha and applied for foliar treatment by a small sprayer.
(§3) Further, in accordance with the above Colby's formula, the growth inhibition rate (calculated value) was calculated. In Tables, with respect to the compound Q, Compound Nos. in Table 1 are described, and with respect to other herbicidal compounds, common names are described. Further, in Tables, barnyardgrass is represented by “EC”, crabgrass by “DS”, giant foxtail by “SF”, velvetleaf by “AT”, and prickly sida by “SS”.

The subject of test [2] is crabgrass (Digitaria sanguinalis L.). The test can be described thus: Foliar treatment pot test, visual growth inhibition rate, crabgrass (DS). To be noted: Digitaria sanguinalis, foliar, read-out: Growth inhibition rate (%) of DS Measured value; for inhibition at 175 g/ha: 504 h, 21 DAT; for inhibition at 375 g/ha: 528 h, 3.1-4.0 leaf stage, 22 DAT. The method, boiled down: (§4)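 Seeds were sown in upland soil pots, and plants were sprayed on the foliage at a predetermined leaf stage with herbicidal compositions diluted in water at 300 L/ha. Growth inhibition was rated visually. Expected combination activity was calculated by Colby's formula to assess synergy.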

The subject of test [3] is prickly sida (Sida spinosa L.). The test can be described thus: Foliar treatment pot test, visual growth inhibition rate, prickly sida (SS). To be noted: Sida spinosa, foliar, read-out: Growth inhibition rate (%) of SS Measured value; for inhibition at 63 g/ha / inhibition at 125 g/ha / inhibition at 250 g/ha: 504 h, 21 DAT.
Text: as §1, §2, §3

In test [4] the test system is velvetleaf (Abutilon theophrasti MEDIC.). As to the kind of experiment: Foliar treatment pot test, visual growth inhibition rate, velvetleaf (AT). To be noted: Abutilon theophrasti, foliar, read-out: Growth inhibition rate (%) of AT Measured value; for inhibition at 300 g/ha: 3.1-3.4 leaf stage. In outline:
as §4

The mark [5] stands for this setting: 336 h, 4.6-5.3 leaf stage, 14 DAT.
Where [6] appears, read: 504 h, 3.0-3.8 leaf stage, 21 DAT.
The mark [7] stands for this setting: 504 h, 4.0-4.5 leaf stage, 21 DAT.

In the case of `CCNc1nc(Cl)nc(NC(C)C)n1` [Atrazine, atrazine], the inhibition at 250 g/ha in test [1] was determined as 10%; in test [3] (3.0-3.3 leaf stage), 65%. Moreover, the inhibition at 125 g/ha was 0% in test [1] and 45% in test [3] (3.0-3.3 leaf stage). Besides, the inhibition at 50 g/ha was 20% in test [2] (336 h, 4.0-4.5 leaf stage, 14 DAT, 50 g/ha) and 30% in test [4] (480 h, 3.1-3.5 leaf stage, 20 DAT, 50 g/ha). Further, the inhibition at 400 g/ha in test [2] (336 h, 4.0-4.5 leaf stage, 14 DAT, 400 g/ha) is 30%; in test [4] (480 h, 3.1-3.5 leaf stage, 20 DAT, 400 g/ha), 40%. The inhibition at 800 g/ha was 40% in test [2] (336 h, 4.0-4.5 leaf stage, 14 DAT, 800 g/ha) and 100% in test [4] (480 h, 3.1-3.5 leaf stage, 20 DAT, 800 g/ha). For the same compound, the inhibition at 500 g/ha in test [2] (336 h, 5.0-6.0 leaf stage, 14 DAT, 500 g/ha) was 0%; in test [4] (setting [5]) it was 45%. Further, the inhibition at 1000 g/ha in test [2] (336 h, 5.0-6.0 leaf stage, 14 DAT, 1000 g/ha) turned out to be 10%; in test [4] (setting [5]) it was 60%. The inhibition at 2000 g/ha in test [2] (336 h, 5.0-6.0 leaf stage, 14 DAT, 2000 g/ha) is 25%; in test [4] (setting [5]) it was 70%. In addition, the inhibition at 175 g/ha in test [2] (3.5-4.3 leaf stage) and in test [4] (setting [6]) was 0% each time. The inhibition at 375 g/ha is 0% in test [2] and 25% in test [4] (528 h, 4.0-4.4 leaf stage, 22 DAT, 375 g/ha). Moreover, in test [3] (3.0-3.3 leaf stage), the inhibition at 63 g/ha was found to be 30%. In addition, the inhibition at 100 g/ha in test [4] (480 h, 3.1-3.5 leaf stage, 20 DAT, 100 g/ha) was 30%. The inhibition at 200 g/ha in test [4] (480 h, 3.1-3.5 leaf stage, 20 DAT, 200 g/ha) turned out to be 35%. Also, in test [4] (480 h, 3.1-3.5 leaf stage, 20 DAT, 600 g/ha), the inhibition at 600 g/ha came to 80%.

Turning to `CCNc1nc(Cl)nc(NC(C)(C)C)n1` [Terbuthylazine, terbuthylazine], the inhibition at 250 g/ha in test [1] amounted to 10%; in test [3] (3.0-4.0 leaf stage) it was 20%. In addition, the inhibition at 125 g/ha in test [1] and in test [3] (3.0-4.0 leaf stage) was 0% in each case. Moreover, the inhibition at 300 g/ha turned out to be 25% in test [2] (336 h, 3.5-4.3 leaf stage, 14 DAT, 300 g/ha); 50% in test [4] (480 h, 20 DAT); 50% in test [4] (504 h, 21 DAT). The inhibition at 175 g/ha in test [2] (3.5-4.3 leaf stage) came to 0%; in test [4] (setting [6]) it was 0%; in test [4] (528 h, 4.0-4.4 leaf stage, 22 DAT), 15%. Moreover, the inhibition at 375 g/ha in test [2] is 0%. The inhibition at 100 g/ha in test [3] (480 h, 1.5-2.4 leaf stage, 20 DAT, 100 g/ha) came to 55%. In test [3] (3.0-4.0 leaf stage), the inhibition at 63 g/ha stood at 0%. The inhibition at 500 g/ha in test [4] (setting [7]) turned out to be 30%. Also, in test [4] (setting [7]), the inhibition at 1000 g/ha is 45%. Besides, in test [4] (setting [7]), the inhibition at 2000 g/ha amounted to 55%.
